The values below come from patent US9796742B2, “Kinase inhibitors” (Respivert Limited, priority 2012, dated 2017).

The target in one test is p38 MAPKα (Homo sapiens (Human), UniProt Q16539). Briefly: p38 MAPKα enzyme inhibition (FRET, Z-LYTE; Method 2). The class given is biochemical. The method in brief:
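p38 MAPKα (2.5 μL of 200 ng/mL stock) preincubated 2 h at RT with compound, then kinase reaction 1 h at RT with readout via MAPKAP-K2 activation using a Z-LYTE FRET peptide. Protease development 1 h; coumarin/fluorescein emission ratio gives phosphorylation. % inhibition versus uninhibited control; IC50 from concentration-response curve.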

The subject of the next test is HT29 cells. Briefly: IL-1β-induced IL-8 release in HT29 cells. The class given is cell-based. Particulars: Homo sapiens, HT-29, IL-1β-stimulated HT29 cells, read-out: IC50 Values for Inhibition of Cytokine Release, HT29 cells IL-8. On the procedure:
HT29 cells, a human colon adenocarcinorna cell line, are plated in a 96 well plate (24 hrs) and pre-treated with compounds at the desired concentration for 2 hours before addition of 5 ng/mL of IL-1β (Abcam) for 24 hours. Supernatants are harvested for IL-8 quantification by Sandwich ELISA (Duo-set, R&D System). The IC50 is determined from the dose response curve.

A further test concerns the target Syk (Homo sapiens (Human), UniProt P43405). In words: Syk enzyme inhibition (FRET, Z-LYTE). The test is classed as biochemical. The method in brief: (§1)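 Z-LYTE FRET peptide assay with enzyme preincubated with compound for 2 h at RT, then 1 h kinase reaction and 1 h protease development. ATP solutions were 800 μM for c-Src and 60 μM for Syk. Inhibition was taken from the coumarin/fluorescein emission ratio, and IC50 from concentration-response curves.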

The target in the next test is c-Src (Homo sapiens (Human), UniProt P12931). In words: c-Src enzyme inhibition (FRET, Z-LYTE). The class given is biochemical. The procedure, abridged:
as §1

The test system of test [1] is PBMCs. Briefly: IL-2 and IFN gamma release in CD3/CD28 stimulated PBMC cells. Particulars: Homo sapiens. The test is classed as cell-based. The procedure, abridged: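 They were cultured with compound for 3 days. IL-2 and IFN-γ in supernatants were quantified by sandwich ELISA, and IC50 was derived from the dose-response curve.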
The subject of test [2] is intestinal mucosa biopsies from ulcerative colitis patients. Briefly: Human biopsy assay (ex-vivo cytokine release). The test is classed as cell-based. On the procedure: Intestinal mucosa biopsies are obtained from the inflamed regions of the colon of IBD patients. The biopsy material is cut into small pieces (2-3 mm) and placed on steel grids in an organ culture chamber at 37° C. in a 5% CO2/95% O2 atmosphere in serum-free media. DMSO control or test compounds at the desired concentration are added to the tissue and incubated for 24 hr in the organ culture chamber. The supernatant is harvested for determination of IL-6, IL-8, IL-1β and TNFα levels by R&D ELISA. Percentage inhibition of cytokine release by the test compounds is calculated relative to the cytokine release determined for the DMSO control (100%).

The target of another test is GSK3α (Homo sapiens (Human), UniProt P49840). Briefly: GSK 3α enzyme inhibition (FRET, Z-LYTE; Method 2). The test is classed as biochemical. The procedure, abridged: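 GSK3-α protein preincubated with compound for 105 min, then Z-LYTE FRET peptide and ATP added for 1 h before protease development for 1 h. Phosphorylation taken from coumarin/fluorescein emission ratio; percent inhibition against uninhibited control and IC50 calculated from concentration-response curves.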

Test [3] concerns PBMCs. In words: LPS-induced TNFα/IL-8 release in PBMC cells. The test is classed as cell-based. Particulars: Homo sapiens, LPS-stimulated PBMCs. The method in brief: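 Cytokines (TNFα, IL-8) in supernatants were quantified by sandwich ELISA after a 24 h challenge with 1 ng/mL E. coli LPS at 37° C, 5% CO2. Healthy-donor PBMCs had been exposed to compound for 2 h beforehand. IC50 values were fitted from the concentration-response curves.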

The mark [4] stands for this setting: 1 μg/ml, 24 hours, DMSO control 100%.

The structures appear in SMILES notation.

As usually defined, the IC50 is the point on the concentration scale where inhibition reaches its midpoint.

Chain of GSK3α (P49840 whole entry): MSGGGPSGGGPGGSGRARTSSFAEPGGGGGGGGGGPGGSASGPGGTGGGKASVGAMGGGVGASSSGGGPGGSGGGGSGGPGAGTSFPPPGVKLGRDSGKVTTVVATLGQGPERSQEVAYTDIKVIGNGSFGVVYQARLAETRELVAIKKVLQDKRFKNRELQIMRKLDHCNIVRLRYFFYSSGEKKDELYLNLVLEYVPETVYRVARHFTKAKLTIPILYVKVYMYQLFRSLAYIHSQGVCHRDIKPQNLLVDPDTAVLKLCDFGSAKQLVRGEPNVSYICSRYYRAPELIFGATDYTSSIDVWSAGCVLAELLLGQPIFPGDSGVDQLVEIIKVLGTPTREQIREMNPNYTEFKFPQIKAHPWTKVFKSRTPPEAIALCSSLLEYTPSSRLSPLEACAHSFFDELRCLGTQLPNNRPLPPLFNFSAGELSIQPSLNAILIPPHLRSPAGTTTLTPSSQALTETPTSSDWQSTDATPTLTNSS
Chain of p38 MAPKα (Q16539 whole entry): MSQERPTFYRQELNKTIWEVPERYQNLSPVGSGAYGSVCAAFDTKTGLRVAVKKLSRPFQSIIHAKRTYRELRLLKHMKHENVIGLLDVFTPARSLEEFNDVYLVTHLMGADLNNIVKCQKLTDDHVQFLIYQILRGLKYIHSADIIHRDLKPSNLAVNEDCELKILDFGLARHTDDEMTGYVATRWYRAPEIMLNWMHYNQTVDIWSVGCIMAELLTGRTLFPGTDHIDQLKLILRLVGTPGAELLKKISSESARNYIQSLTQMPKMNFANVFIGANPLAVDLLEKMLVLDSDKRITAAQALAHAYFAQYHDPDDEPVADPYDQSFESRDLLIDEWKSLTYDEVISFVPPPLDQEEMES
Chain of c-Src (P12931 whole entry, looked up): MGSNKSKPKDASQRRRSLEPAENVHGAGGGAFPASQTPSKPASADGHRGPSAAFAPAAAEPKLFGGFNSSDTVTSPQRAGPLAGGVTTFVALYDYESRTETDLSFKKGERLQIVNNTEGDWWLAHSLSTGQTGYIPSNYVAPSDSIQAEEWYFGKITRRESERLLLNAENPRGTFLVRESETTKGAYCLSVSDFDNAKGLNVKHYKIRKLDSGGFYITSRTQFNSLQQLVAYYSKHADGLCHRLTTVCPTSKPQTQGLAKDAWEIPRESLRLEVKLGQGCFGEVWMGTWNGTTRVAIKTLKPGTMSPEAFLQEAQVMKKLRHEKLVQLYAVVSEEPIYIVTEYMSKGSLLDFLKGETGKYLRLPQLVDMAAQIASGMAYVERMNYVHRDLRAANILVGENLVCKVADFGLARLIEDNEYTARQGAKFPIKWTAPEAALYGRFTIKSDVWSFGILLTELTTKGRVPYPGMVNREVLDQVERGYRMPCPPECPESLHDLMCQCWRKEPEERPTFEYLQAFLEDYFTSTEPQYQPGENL

Turning to `COCCOCCOCCOc1cc(Nc2nccc(Oc3ccc(NC(=O)Nc4cc(C(C)(C)C)nn4-c4cccc(CP(C)(C)=O)c4)c4ccccc34)n2)cc(OC)c1` [Example 60, 1-(3-(tert-Butyl)-1-(3-((dimethylphosphoryl)methyl)phenyl)-1H-pyrazol-5-yl)-3-(4-((2-((3-methoxy-5-(2-(2-(2-methoxyethoxy)ethoxy)ethoxy)phenyl)amino)pyrimidin-4-yl)oxy)-naphthalen-1-yl)urea], the half-inhibitory concentration (IC50) against p38 MAPKα was 71 nM; in the test on HT29 cells, 0.8 nM; at Syk, 8 nM; against c-Src, 2 nM; in the test with PBMCs [1] (IFNγ, read-out: IC50 Values for Inhibition of Cytokine Release, PBMCs IFNγ), 1.9 nM; in the test with PBMCs [1] (IL-2, read-out: IC50 Values for Inhibition of Cytokine Release, PBMCs IL-2), 16 nM. For the same compound, the IC50 is 1100 nM on GSK3α; 0.9 nM with PBMCs [3] (IL-8, read-out: IC50 Values for Inhibition of Cytokine Release, PBMCs IL-8); 0.6 nM in the test with PBMCs [3] (TNFα, read-out: IC50 Values for Inhibition of Cytokine Release, PBMCs TNFα). Also, the “cytokine (IL-1b, IL-6 and IL-8) release compared to the DMSO control” value in test [2] (1 μg/mL, 24 hours, biopsies from ulcerative colitis patients) is listed as “significantly inhibited”. In addition, the “IL-1b release from biopsies of UC patients” value in test [2] (setting [4]) is recorded as 1 ± 2%. For the same compound, the “IL-6 release from biopsies of UC patients” value in test [2] (setting [4]) turned out to be 0 ± 0%. Moreover, the “IL-8 release from biopsies of UC patients” value in test [2] (setting [4]) is given as 2 ± 4%. For the same compound, in test [2] (ex-vivo human biopsy model), the “anti-inflammatory effects in biopsies from ulcerative colitis (UC) patients” value was “significant anti-inflammatory effects”.
